The target of series [1] is T1, α4β1 integrin (Jurkat cell adhesion to immobilized CS-1 derived peptide CLHPGEILDVPST) (Homo sapiens, UniProt P05556+P13612).
T1 construct: 100 μl of Jurkat cells (2.5×10^6 cells/ml) in DMEM plus BSA; endogenous in cells; host or cells: Jurkat T-cell line
In words: Jurkat-CS-1 Assay. The format is cell-based. The conditions noted are these: Jurkat cells on CS-1 peptide coated plates. A digest of the protocol: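 CS-1 peptide was SPDP-crosslinked onto HSA-coated plates and blocked with BSA. Jurkat cells (2.5×10^6 cells/ml) in DMEM/BSA were mixed with compound, generally at 100, 20, 5 and 1.25 μM, and allowed to adhere for 1 hr at 37° C. Bound cells were fixed, stained with toluidine blue and quantified by OD590.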

Series [2] deals with T2, α4β1 integrin (Jurkat T-cell adhesion to IL-1 stimulated endothelial cell monolayers) (Homo sapiens, UniProt P05556+P13612).
T2 construct: a T-cell line, Jurkat, known to express the α4β1 integrin; host or cells: Jurkat T-cell line
T2 sequence (P13612 34-1032): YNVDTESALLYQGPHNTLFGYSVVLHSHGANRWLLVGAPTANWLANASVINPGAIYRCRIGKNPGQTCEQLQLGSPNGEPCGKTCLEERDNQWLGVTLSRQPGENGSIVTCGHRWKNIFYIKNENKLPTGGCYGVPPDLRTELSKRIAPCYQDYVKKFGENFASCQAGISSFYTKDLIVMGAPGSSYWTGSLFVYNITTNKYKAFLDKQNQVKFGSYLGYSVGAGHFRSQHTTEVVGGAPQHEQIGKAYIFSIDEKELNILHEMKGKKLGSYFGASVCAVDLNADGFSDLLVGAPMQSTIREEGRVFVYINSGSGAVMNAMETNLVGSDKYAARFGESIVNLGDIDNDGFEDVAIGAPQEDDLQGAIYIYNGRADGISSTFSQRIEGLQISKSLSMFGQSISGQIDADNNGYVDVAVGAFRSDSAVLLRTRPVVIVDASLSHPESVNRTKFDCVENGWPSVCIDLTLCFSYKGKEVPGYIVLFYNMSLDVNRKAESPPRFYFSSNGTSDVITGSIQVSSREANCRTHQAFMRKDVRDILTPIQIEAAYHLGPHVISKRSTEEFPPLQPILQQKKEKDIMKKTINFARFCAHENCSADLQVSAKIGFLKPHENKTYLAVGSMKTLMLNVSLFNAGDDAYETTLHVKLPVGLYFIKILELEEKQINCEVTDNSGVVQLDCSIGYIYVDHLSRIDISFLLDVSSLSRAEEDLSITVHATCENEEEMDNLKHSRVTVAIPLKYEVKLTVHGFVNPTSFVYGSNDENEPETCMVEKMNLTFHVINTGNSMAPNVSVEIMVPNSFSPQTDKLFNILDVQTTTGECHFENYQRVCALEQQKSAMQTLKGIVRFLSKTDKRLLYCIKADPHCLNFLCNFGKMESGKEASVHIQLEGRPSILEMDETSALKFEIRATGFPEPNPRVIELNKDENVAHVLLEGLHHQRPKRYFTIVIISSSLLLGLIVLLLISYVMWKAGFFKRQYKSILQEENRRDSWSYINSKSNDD
T2 sequence (P05556 21-798): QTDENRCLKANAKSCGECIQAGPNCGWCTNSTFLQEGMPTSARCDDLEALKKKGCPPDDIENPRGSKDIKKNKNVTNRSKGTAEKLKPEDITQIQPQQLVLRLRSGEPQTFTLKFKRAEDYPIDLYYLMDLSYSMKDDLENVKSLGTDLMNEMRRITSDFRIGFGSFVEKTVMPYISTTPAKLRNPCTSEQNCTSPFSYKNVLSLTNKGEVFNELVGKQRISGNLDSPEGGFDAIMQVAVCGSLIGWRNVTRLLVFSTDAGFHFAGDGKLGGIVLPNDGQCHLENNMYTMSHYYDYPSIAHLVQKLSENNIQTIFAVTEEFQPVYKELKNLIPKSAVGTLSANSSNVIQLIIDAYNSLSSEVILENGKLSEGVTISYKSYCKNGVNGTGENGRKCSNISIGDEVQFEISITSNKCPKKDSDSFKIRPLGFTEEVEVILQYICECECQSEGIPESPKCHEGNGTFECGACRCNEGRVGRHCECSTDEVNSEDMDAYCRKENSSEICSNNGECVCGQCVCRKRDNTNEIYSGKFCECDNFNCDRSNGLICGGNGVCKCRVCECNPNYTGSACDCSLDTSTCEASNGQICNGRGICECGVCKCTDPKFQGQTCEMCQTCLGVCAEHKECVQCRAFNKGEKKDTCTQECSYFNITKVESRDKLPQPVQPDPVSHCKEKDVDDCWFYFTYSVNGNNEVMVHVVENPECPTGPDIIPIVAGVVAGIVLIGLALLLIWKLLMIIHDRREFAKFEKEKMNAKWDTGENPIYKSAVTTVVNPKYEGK
In words: Jurkat-Endothelial Cell Adhesion Assay (Jurkat EC). It counts as cell-based. The following applies: Jurkat cells on IL-1 stimulated HUVEC monolayers. A digest of the protocol: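 BCECF-loaded Jurkat cells (5×10^5) mixed with compound (generally 100, 20, 5 and 1.25 μM) and added to HUVEC monolayers prestimulated 4 hr with 0.1 ng/ml IL-1, in DMEM-HSA. After 5 min on ice and 20 min at 37° C, washed; fluorescence gives % adhesion relative to no-compound control set at 100%.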

A value given as a limit tells only on which side of the number the result lay.

T1 sequence (P13612 34-1032): as the sequence (P13612 34-1032) above
T1 sequence (P05556 21-798): as the sequence (P05556 21-798) above

`Cc1cccc(C)c1C(=O)Nc1ccc(C[C@H](NC(=O)[C@H]2CC[C@@](C)(C(=O)O)C2(C)C)C(=O)O)cc1` [Example 81]: the melting point – broadly, the temperature, or range, at which the solid turns liquid – lay within 195 to 198 °C. Further, the IC50 – broadly, the concentration needed to halve the response being measured – in series [1] is 80 to 500 nM. This compound showed an IC50 in series [2] of at most 800 nM.

For the compound `CC1(C)[C@@H](C(=O)N[C@@H](Cc2ccc(NC(=O)c3c(F)cccc3F)cc2)C(=O)O)CC[C@@]1(C)C(=O)O` [Example 83], the melting point lay within 150 to 152 °C. For the same compound, in series [1], the IC50 was at most 80 nM. The compound further showed an IC50 in series [2] of at most 800 nM.

In the case of `CC1(C)[C@@H](C(=O)N[C@@H](Cc2ccc(NC(=O)c3ccccc3)cc2)C(=O)O)CC[C@@]1(C)C(=O)O` [Example 85], the melting point is 145 to 148 °C. Moreover, in series [1], the IC50 lay in the range of 80 to 500 nM. The same compound yielded an IC50 in series [2] of 5000 to 10000 nM.

The compound `CC1(C)[C@@H](C(=O)N[C@@H](Cc2ccc(NC(=O)c3cc(Cl)ccc3Cl)cc2)C(=O)O)CC[C@@]1(C)C(=O)O` [Example 87] displayed a melting point of 155 to 158 °C. In series [1], this compound returned an IC50 of at most 80 nM. Further, the IC50 in series [2] was at most 800 nM.

The compound `CC1(C)[C@@H](C(=O)N[C@@H](Cc2ccc(NC(=O)c3cccc(C(=O)c4ccccc4)c3)cc2)C(=O)O)CC[C@@]1(C)C(=O)O` [Example 89] returned a melting point of 190 to 193 °C. For the same compound, the IC50 in series [1] lay in the range of 80 to 500 nM. This compound had an IC50 in series [2] of 800 to 5000 nM.

`CC1(C)[C@@H](C(=O)N[C@@H](Cc2ccc(NC(=O)c3cccc([N+](=O)[O-])c3)cc2)C(=O)O)CC[C@@]1(C)C(=O)O` [Example 91]: the melting point lay within 146 to 149 °C. The same compound yielded an IC50 in series [1] of at most 80 nM. Moreover, the IC50 in series [2] is 800 to 5000 nM.

For the compound `COc1ccccc1C(=O)Nc1ccc(C[C@H](NC(=O)[C@H]2CC[C@@](C)(C(=O)O)C2(C)C)C(=O)O)cc1` [Example 95], the melting point fell in the range of 140 to 143 °C. In series [1], this compound had an IC50 of 80 to 500 nM. Moreover, in series [2], the IC50 lay in the range of 800 to 5000 nM.

Consider `CC1(C)[C@@H](C(=O)N[C@@H](Cc2ccc(NC(=O)c3cc(Br)ccc3Br)cc2)C(=O)O)CC[C@@]1(C)C(=O)O` [Example 97], for which the melting point fell in the range of 170 to 173 °C. This compound gave an IC50 in series [1] of at most 80 nM. Also, in series [2], the IC50 is at most 800 nM.

Consider `CC1(C)[C@@H](C(=O)N[C@@H](Cc2ccc(NC(=O)c3cc(C(F)(F)F)ccc3C(F)(F)F)cc2)C(=O)O)CC[C@@]1(C)C(=O)O` [Example 104], for which the melting point lay within 148 to 150 °C. In addition, in series [1], the IC50 was at most 80 nM. The same compound yielded an IC50 in series [2] of at most 800 nM.

Regarding `Cc1cccc(Cl)c1C(=O)Nc1ccc(C[C@H](NC(=O)[C@H]2CC[C@@](C)(C(=O)O)C2(C)C)C(=O)O)cc1` [Example 106], the melting point was 165 to 168 °C. In series [1], this compound had an IC50 of at most 80 nM. In series [2], this compound had an IC50 of at most 800 nM.

In turn, `CC1(C)[C@@H](C(=O)N[C@@H](Cc2ccc(NC(=O)c3ccccc3C(F)(F)F)cc2)C(=O)O)CC[C@@]1(C)C(=O)O` [Example 108] showed a melting point of 180 to 183 °C. In series [1], this compound gave an IC50 of at most 80 nM. The IC50 in series [2] was at most 800 nM.

The compound `CC1(C)[C@@H](C(=O)N[C@@H](Cc2ccc(NC(=O)c3ccccc3I)cc2)C(=O)O)CC[C@@]1(C)C(=O)O` [Example 110] showed a melting point of 162 to 165 °C. The same compound gave an IC50 in series [1] of at most 80 nM. Besides, the IC50 in series [2] is at most 800 nM.

Compound `CC1(C)[C@@H](C(=O)N[C@@H](Cc2ccc(NC(=O)c3ccccc3Br)cc2)C(=O)O)CC[C@@]1(C)C(=O)O` [Example 112] returned a melting point of 156 to 158 °C. In series [1], the IC50 is at most 80 nM. In addition, the IC50 in series [2] was at most 800 nM.

On to `CC1(C)[C@@H](C(=O)N[C@@H](Cc2ccc(NC(=O)c3ccc(Cl)c(Cl)c3)cc2)C(=O)O)CC[C@@]1(C)C(=O)O` [Example 114], for which the melting point was 155 to 157 °C. In series [1], this compound registered an IC50 of 80 to 500 nM. In addition, the IC50 in series [2] is at most 800 nM.

Turning to `CC1(C)[C@@H](C(=O)N[C@@H](Cc2ccc(NC(=O)c3ccc(-c4ccccc4)cc3)cc2)C(=O)O)CC[C@@]1(C)C(=O)O` [Example 116], the melting point lay within 162 to 165 °C. The compound also returned an IC50 in series [1] of at most 80 nM. For the same compound, the IC50 in series [2] is at most 800 nM.

`CC1(C)[C@@H](C(=O)N[C@@H](Cc2ccc(NC(=O)c3ccccc3Cl)cc2)C(=O)O)CC[C@@]1(C)C(=O)O` [Example 120] gave a melting point of 143 to 145 °C. Besides, the half-inhibitory concentration (IC50) in series [1] fell in the range of 80 to 500 nM. This compound also showed an IC50 in series [2] of 800 to 5000 nM.

`CC1(C)[C@@H](C(=O)N[C@@H](Cc2ccc(NC(=O)Cc3ccccc3)cc2)C(=O)O)CC[C@@]1(C)C(=O)O` [Example 121] had a melting point of 240 to 242 °C. Also, the IC50 in series [1] lay in the range of 500 to 1000 nM. This compound also came in with an IC50 in series [2] of 800 to 5000 nM.

`CC1(C)[C@@H](C(=O)N[C@@H](Cc2ccc(NC(=O)c3ccc4ccccc4c3)cc2)C(=O)O)CC[C@@]1(C)C(=O)O` [Example 124] had a melting point of 141 to 143 °C. This compound showed an IC50 in series [1] of 80 to 500 nM. For the same compound, in series [2], the IC50 is 800 to 5000 nM.

As to `CC1(C)[C@@H](C(=O)N[C@@H](Cc2ccc(NC(=O)c3ccc(Cl)cc3)cc2)C(=O)O)CC[C@@]1(C)C(=O)O` [Example 128], the melting point was 185 to 188 °C. This compound also displayed an IC50 in series [1] of 80 to 500 nM. Further, the IC50 in series [2] fell in the range of 800 to 5000 nM.

`CC1(C)[C@@H](C(=O)N[C@@H](Cc2ccc(NC(=O)c3ccco3)cc2)C(=O)O)CC[C@@]1(C)C(=O)O` [Example 130] returned a melting point of 158 to 161 °C. Further, the IC50 in series [1] was in the range of 80 to 500 nM. The compound further yielded an IC50 in series [2] of 800 to 5000 nM.

Take `CC1(C)[C@@H](C(=O)N[C@@H](Cc2ccc(NC(=O)c3ccccc3F)cc2)C(=O)O)CC[C@@]1(C)C(=O)O` [Example 132]: the melting point lay within 117 to 120 °C. This compound showed an IC50 in series [1] of 80 to 500 nM. In series [2], the IC50 was in the range of 800 to 5000 nM.

`CC1(C)[C@@H](C(=O)N[C@@H](Cc2ccc(NC(=O)c3cccc4c3Cc3ccccc3-4)cc2)C(=O)O)CC[C@@]1(C)C(=O)O` [Example 136] had a melting point of 160 to 163 °C. Also, the IC50 in series [1] lay in the range of 500 to 1000 nM. This compound showed an IC50 in series [2] of 5000 to 10000 nM.

Regarding `CC(C)COC(=O)Nc1ccc(C[C@H](NC(=O)[C@H]2CC[C@@](C)(C(=O)O)C2(C)C)C(=O)O)cc1` [Example 141], the melting point is 125 to 128 °C. Besides, the half-inhibitory concentration (IC50) in series [1] fell in the range of 500 to 1000 nM. Also, the IC50 in series [2] fell in the range of 800 to 5000 nM.

In turn, `Cc1ccccc1C(=O)Nc1ccc(C[C@H](NC(=O)[C@H]2CC[C@@](C)(C(=O)O)C2(C)C)C(=O)O)cc1` [Example 142] yielded a melting point of 152 to 155 °C. For the same compound, the IC50 in series [1] is 80 to 500 nM. This compound had an IC50 in series [2] of 800 to 5000 nM.

`CC1(C)[C@@H](C(=O)N[C@@H](Cc2ccc(NC(=O)c3ccccc3N)cc2)C(=O)O)CC[C@@]1(C)C(=O)O` [Example 144]: the melting point is 195 to 198 °C. The compound further displayed an IC50 in series [1] of 80 to 500 nM. Also, the IC50 in series [2] lay in the range of 800 to 5000 nM.

As for `CC1(C)[C@@H](C(=O)N[C@@H](Cc2ccc(NC(=O)C3Cc4ccccc4CN3)cc2)C(=O)O)CC[C@@]1(C)C(=O)O` (stereo partly drawn) [Example 146], the melting point fell in the range of 208 to 211 °C. This compound displayed an IC50 in series [1] of 80 to 500 nM. This compound came in with an IC50 in series [2] of 800 to 5000 nM.

Compound `Cc1ccc(S(=O)(=O)Nc2ccc(C[C@H](NC(=O)[C@H]3CC[C@@](C)(C(=O)O)C3(C)C)C(=O)O)cc2)cc1` [Example 150] gave a melting point of 220 to 223 °C. Also, in series [1], the IC50 lay within 500 to 1000 nM. Also, the IC50 in series [2] was 800 to 5000 nM.

As to `CC1(C)[C@@H](C(=O)N[C@@H](Cc2ccc(NCc3c(Cl)cccc3Cl)cc2)C(=O)O)CC[C@@]1(C)C(=O)O` [Example 152], the melting point is 100 to 103 °C. In series [1], the IC50 is at most 80 nM. For the same compound, in series [2], the IC50 is at most 800 nM.

In the case of `CC1(C)[C@@H](C(=O)N[C@@H](Cc2ccc(OCc3c(Cl)cccc3Cl)cc2)C(=O)O)CC[C@@]1(C)C(N)=O` [Example 155, (1S-cis)-N-[[3-(Aminocarbonyl)-2,2,3-trimethylcyclopentyl]carbonyl]-O-[(2,6-dichlorophenyl)methyl]-L-tyrosine], the melting point was in the range of 102 to 104 °C. The compound also returned an IC50 in series [1] of 500 to 1000 nM. In series [2], this compound gave an IC50 of 5000 to 10000 nM.

With `CC1(C)[C@@H](C(=O)N[C@@H](Cc2ccc(NC(=O)c3cccnc3Cl)cc2)C(=O)O)CC[C@@]1(C)C(=O)O` [Example 208, (1S-cis)-N-[(3-Carboxy-2,2,3-trimethylcyclopentyl)carbonyl]-4-[[(2-chloro-3-pyridinyl)carbonyl]amino]-L-phenylalanine], the melting point was 172 to 174 °C. This compound showed an IC50 in series [1] of 80 to 500 nM. The compound also returned an IC50 in series [2] of at most 800 nM.

The compound `CC1(C)[C@@H](C(=O)N[C@@H](Cc2ccc(NC(=O)c3ccc(Cl)nc3Cl)cc2)C(=O)O)CC[C@@]1(C)C(=O)O` [Example 209, (1S-cis)-N-[(3-Carboxy-2,2,3-trimethylcyclopentyl)carbonyl]-4-[[(2,6-dichloro-3-pyridinyl)carbonyl]amino]-L-phenylalanine] yielded a melting point of 246 to 247 °C. Also, the IC50 in series [1] is at most 80 nM. Besides, in series [2], the IC50 is at most 800 nM.

The compound `COc1nc(Cl)ccc1C(=O)Nc1ccc(C[C@H](NC(=O)[C@H]2CC[C@@](C)(C(=O)O)C2(C)C)C(=O)O)cc1` [Example 210, (1S-cis)-N-[(3-Carboxy-2,2,3-trimethylcyclopentyl)carbonyl]-4-[[(2-methoxy-6-chloropyridin-3-yl)carbonyl]-amino]-L-phenylalanine] came in with a melting point of 128 to 131 °C. In series [1], this compound gave an IC50 of at most 80 nM. The IC50 in series [2] was at most 800 nM.

(Values after patent publication US6482849B1, “Inhibitors of α4β1 mediated cell adhesion” (Tanabe Seiyaku Co., Ltd., priority 1997, dated 2002).)
